Results on nine molecules are retold here after publication PMC11040118 (Heliyon, 2024).

This assay deals with T1, Thyroperoxidase (TPO) (Rattus norvegicus, UniProt P14650).
T1 sequence (P14650 32-914): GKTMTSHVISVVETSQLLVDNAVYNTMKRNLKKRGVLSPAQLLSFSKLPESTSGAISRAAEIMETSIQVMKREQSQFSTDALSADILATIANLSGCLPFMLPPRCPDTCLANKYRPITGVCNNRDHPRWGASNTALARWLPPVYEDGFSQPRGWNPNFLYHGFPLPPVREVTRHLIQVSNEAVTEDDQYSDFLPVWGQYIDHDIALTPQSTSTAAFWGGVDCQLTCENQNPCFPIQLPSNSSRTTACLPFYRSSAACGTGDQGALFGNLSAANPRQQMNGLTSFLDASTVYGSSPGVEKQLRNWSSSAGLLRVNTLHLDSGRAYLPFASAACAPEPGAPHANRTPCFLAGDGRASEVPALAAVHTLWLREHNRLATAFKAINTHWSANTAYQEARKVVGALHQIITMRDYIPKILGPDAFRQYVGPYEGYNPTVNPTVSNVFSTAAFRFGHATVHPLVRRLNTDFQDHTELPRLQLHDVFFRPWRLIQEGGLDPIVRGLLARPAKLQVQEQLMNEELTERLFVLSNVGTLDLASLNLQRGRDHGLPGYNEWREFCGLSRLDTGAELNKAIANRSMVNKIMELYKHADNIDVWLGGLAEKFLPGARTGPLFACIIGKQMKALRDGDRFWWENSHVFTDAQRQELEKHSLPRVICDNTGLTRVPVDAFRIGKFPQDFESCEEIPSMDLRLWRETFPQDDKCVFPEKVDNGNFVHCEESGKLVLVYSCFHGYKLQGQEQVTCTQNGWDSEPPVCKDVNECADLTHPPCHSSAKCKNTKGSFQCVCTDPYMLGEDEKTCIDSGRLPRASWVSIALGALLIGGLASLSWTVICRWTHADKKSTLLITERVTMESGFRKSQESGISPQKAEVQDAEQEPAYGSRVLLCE
In kind it is biochemical.

Where [1] appears, read: AVG IC50 ± SD, L-Tyr to MIT, rat thyroid microsomes, mean of N = 3 ± SD.
Setting [2] is: Actual pIC50, in vitro value repeated in Table 2 for comparison with the models.
Setting [3] is: Log10 Value of AVG IC50, L-Tyr to MIT, from average IC50, Table 1.

Read-outs that look alike come from different tables or passages of the source.

As to `O=C(O[C@@H]1Cc2c(O)cc(O)cc2O[C@@H]1c1cc(O)c(O)c(O)c1)c1cc(O)c(O)c(O)c1` [Epigallocatechin gallate], the “Log10 Value of AVG IC50, L-Tyr to MIT” value (from average IC50, Table 1) turned out to be 6.48. Further, the “Actual pIC50” value (in vitro value repeated in Table 2 for comparison with the models) is 6.48.
Take `O=C(O)c1cc(O)c(O)c(O)c1` [Gallic acid hydrate]: the IC50 by setting is: under setting [1], 0.79 ± 0.34 µM; under setting [2], 0.813 µM; under setting [3], 0.813 µM.
As for `O=c1c(O)c(-c2ccc(O)cc2)oc2cc(O)cc(O)c12` [Kaemferol, Kaempferol], the IC50 is 4.93 ± 1.97 µM under setting [1], 5.01 µM under setting [2] and 5.01 µM under setting [3].
For `CC[C@H](c1ccc(O)cc1)[C@@H](CC)c1ccc(O)cc1` [Hexestrol], the IC50 is 7.77 ± 2.71 µM under setting [1], 7.94 µM under setting [2] and 7.94 µM under setting [3].
On to `COc1cc(/C=C/C(=O)CC(=O)/C=C/c2ccc(O)c(OC)c2)ccc1O` [Curcumin], for which it took 1.81 ± 0.43 µM to reach half-maximal inhibition under setting [1] (IC50) and the midpoint of inhibition under setting [2], the IC50, lay at 1.82 µM.
In the case of `Oc1ccc(OCc2ccccc2)cc1` [4-Benzyloxy phenol, 4-Benzyloxyphenol], the IC50 under setting [1] stood at 8.76 ± 1.36 µM, the IC50 under setting [2] was 8.91 µM and inhibition under setting [3] was half-maximal at 8.91 µM (IC50).
Consider `Oc1ccc(/C=C/c2cc(O)cc(O)c2)cc1` [Reservatrol, Resveratrol], for which the IC50 is 0.71 ± 0.05 µM under setting [1] and 0.724 µM under setting [2].
Regarding `COc1cc(CCC(=O)CC(=O)CCc2ccc(O)c(OC)c2)ccc1O` [Tetrahydro curcumin, Tetrahydrocurcumin], the IC50 was 1.51 ± 0.17 µM under setting [1], 1.55 µM under setting [2] and 1.55 µM under setting [3].
For `NC(=S)Nc1ccccc1` [Phenylthiourea], the IC50 under setting [1] turned out to be 2.73 ± 0.69 µM and the IC50 under setting [2] is 2.75 µM.

The term IC50 denotes the concentration that inhibits the measured activity by half.
